Measured values taken from patent publication EP4759810A1, “PROTAC TARGETING BCL-XL PROTEIN AND USE THEREOF” (BEIJING SUNCELL BIO-MEDICAL CO., LTD., priority 2023, dated 2025).
Where two headings read alike, the source gives them in different places.

Experiments:
platelets = experiment: In vivo platelet toxicity test in mice; conditions: intraperitoneal, 5 mg/kg, Figure 5B
Description: The in vivo platelet toxicity test was performed by using 5-6 week old female C57BL/6J mice. The C57BL/6J mice were purchased from Beijing Vital River Laboratory Animal Technology Co., Ltd. and housed under specific pathogen-free (SPF) conditions, with a 12-hour light/12-hour dark cycle, and free access to food and water. […] Different doses of the molecules to be tested (e.g., 0.1, 0.5, 2.5 mg/kg or 2, 5, 20 mg/kg) were prepared in advance with the aforementioned vehicle, and administered to mice via intraperitoneal injection at a volume of 200 µL for each mouse. After administration was completed, approximately 50 µL of blood was collected from each mouse at different time points via the intra-canthus sampling method into EDTA anticoagulant tubes (RAM Scientific), then a routine analysis of blood was performed by using a hematology analyzer, and the platelets was counted.

Molt-4 cells [1] = experiment: Detection of E3 enzyme-dependence: Molt-4 cell killing with or without pomalidomide (CCK-8); format: cell-based; conditions: 10 µM pomalidomide, Figure 2
Description: Actively growing and healthy Molt-4 cells were collected, centrifuged at 1000 rpm for 5 minutes, and after removing the supernatant, the cells were resuspended in fresh RPMI-1640 medium containing 10% fetal bovine serum. Cell counting was then performed. The cell density was adjusted to 120,000 cells per milliliter, and 100 µL of the cell suspension was added to each well of a 96-well transparent cell culture plate. It was noted that the edge wells of the 96-well plate were not used for testing, and 300 µL of PBS alone was added to these wells to reduce medium evaporation.
Molt-4 cells were plated in duplicate according to the number of the tested small molecules, so as to test the effects with and without the addition of pomalidomide (a competitive ligand specific for E3 ligase), in which one half of the parallel cells was added 10 µM pomalidomide. A series of small molecule concentration gradients (0.001, 0.003, 0.01, 0.03, 0.1, 0.3, 1, and 3 µM) were pre-set, and a series of 2× drug dilutions for the above concentrated were prepared in DMEM medium containing 10% fetal bovine serum. 100 µL of the above DMEM medium containing the gradient concentrations of the drug was added to 96-well plates that have been pre-plated with cells, so that the final drug concentration in each well was the pre-set series of concentrations respectively. Three replicate wells were used for each test drug concentration. The 96-well plates were placed back in a 37°C incubator, and the cell viability was detected after three days.
Cell viability after drug treatment was detected by using the CCK-8 method: three days after adding the drugs, the plates were taken out, and the supernatant was discarded. Then, 100 µL of pre-prepared CCK-8 working solution was added to each well. The CCK-8 working solution was obtained through diluting a CCK-8 stock solution (C0041, Beyotime) by 10-fold volumn with a serum-free DMEM culture medium. The 96-well plates with the added CCK-8 working solution were placed back in the 37°C incubator and incubated for 0.5-2 hours. The plates were then taken out, and the absorbance value (OD value) of each well was measured at a wavelength of 450 nm. The cell viability in each experimental group was calculated according to the following formula: Relative cell viability (%) = (Blank control group - Experimental group) / Blank control group × 100%.

MRC5 cells = experiment: Senescent cell killing activity test, MRC5 cell model (CCK-8); format: cell-based, human; conditions: for activity for killing senescent cells at lower concentrations compared to A-1331852: 0.01 µM and 0.03 µM; for selectivity for senescent cells: Figures 3G-3L
Description: (§1) To avoid replication of the induced senescent cells, low-passage proliferating HEF cells (<10 passages), MRC5 cells (<6 passages), and BJ cells (<10 passages) were used as normal controls. For chemical drug induced senescence, HEF cells were treated with 10 µM etoposide (Selleck, S1225) for 36-48 hours, MRC5 cells were treated with 5 µM bleomycin (Selleck, S1225) for 72 hours, and BJ cells were treated with 10 µg/mL bleomycin for 72 hours. Three days after the treatment, the cells were subcultured in fresh culture medium at a 1:3 ratio for 72 hours before further analysis and use.
(§2) Non-senescent and induced-senescent HEF cells, non-senescent and induced-senescent MRC5 cells, and non-senescent and induced-senescent BJ cells were respectively digested with trypsin, and centrifuged at 1000 rpm for 5 minutes. Then, the supernatant was removed, and the cells were resuspended in fresh DMEM culture medium containing 10% fetal bovine serum for counting. The cell density was adjusted so that the non-senescent cell density was 4000 cells/100 µL and the senescent cell density was 7000 cells/100 µL. 100 µL of the cell suspension was added to each well of a 96-well transparent cell culture plate. It was noted that the edge wells of the 96-well plate were not used as testing wells, and 300 µL of PBS alone was added to these wells to reduce evaporation of the culture medium. The 96-well plates with the well-plated cells were placed back in a 37°C incubator for overnight culture until the cells adhered. On the next day, the small molecule compounds to be tested were prepared and added after the cells had adhered.
(§3) A series of small molecule concentration gradients (0.01, 0.03, 0.1, 0.3, 1, 3, 10, and 25 µM) were pre-set, and a series of 2× drug dilutions for the above concentrations were prepared in DMEM culture medium containing 10% fetal bovine serum. 100 µL of the above DMEM culture medium containing the gradient concentrations of the drug was added to each well of the 96-well plate that had been well-plated with cells, so that the final drug concentration in each well was the pre-set series of concentrations. Three replicate wells were used for each test drug concentration. The 96-well plates were placed back in a 37°C incubator, and cell viability was measured after three days.
(§4) Three days after adding the drug, the plates were taken out, and the supernatant was discarded. 100 µL of pre-prepared CCK-8 working solution was added to each well. The CCK-8 working solution was obtained through diluting a CCK-8 stock solution (C0041, Beyotime) with a serum-free DMEM culture medium by 10-fold volumn. The 96-well plates containing the CCK-8 working solution were placed back in the 37°C incubator and incubated for 0.5-2 hours. The plates were then taken out, and the absorbance value (OD value) of each well was measured at a wavelength of 450 nm. The cell viability in each experimental group was calculated according to the following formula: Relative cell viability (%) = (Blank control group - Experimental group) / Blank control group × 100%.

HEF cells = experiment: Senescent cell killing activity test, HEF cell model (CCK-8); format: cell-based, human
Molt-4 cells [2] = experiment: Molt-4 cell killing activity test (CCK-8); format: cell-based; conditions: for killing Molt-4 cells at different concentrations (Figure 1), in words: 0.001-3 µM, comparison with control molecules; for EC50: Homo sapiens
Outline: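 Molt-4 cells in RPMI-1640 with 10% FBS were exposed to compounds at 0.001–3 µM final, triplicate wells, for three days at 37°C. Viability was read by CCK-8 absorbance at 450 nm after 0.5–2 h, expressed relative to blank control.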

Bcl-xL protein = target: T1, Bcl-xL protein (Homo sapiens, UniProt Q07817); experiment: Degradation experiment of Bcl-xL target protein (Western blot in Molt-4 cells); format: cell-based; conditions: 100 nM, 0, 2, 6, 16 h, GAPDH internal control, Figure 4
T1 construct: host or cells: Molt-4 cells
T1 sequence (Q07817 whole entry): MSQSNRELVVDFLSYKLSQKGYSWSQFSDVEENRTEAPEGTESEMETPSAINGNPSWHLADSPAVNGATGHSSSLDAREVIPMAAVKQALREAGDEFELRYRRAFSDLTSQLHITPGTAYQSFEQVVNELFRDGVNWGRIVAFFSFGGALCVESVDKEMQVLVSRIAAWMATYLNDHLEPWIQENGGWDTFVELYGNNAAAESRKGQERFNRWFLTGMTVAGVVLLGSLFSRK
Description: Actively growing and healthy Molt-4 cells were subcultured into a fresh RPMI-1640 medium containing 10% fetal bovine serum, and each PROTAC molecule was added thereto at a final concentration of 100 nM. After drug treatment for the specified times (0, 2, 6, and 16 hours), the cells were collected, the supernatant was discarded by centrifugation, and the cells were washed twice with pre-cooled PBS buffer. Total protein was extracted with a lysis buffer (Servicebio, G2002-100ML), and the protein concentration was normalized by using a BCA protein quantification kit (Servicebio, G2026). Protein samples were mixed with a protein-loading buffer and incubated at 95°C for 5 minutes. Western blotting experiments were performed by using the following antibodies: Bcl-xL (Abcam, catalog number ab32370), diluted at 1:500; GAPDH antibody (Servicebio, catalog number GB15004), diluted at 1:1000; and horseradish peroxidase-conjugated goat anti-rabbit secondary antibody (Servicebio, catalog number GB23303), diluted at 1:5000.

BJ cells = experiment: Senescent cell killing activity test, BJ cell model (CCK-8); format: cell-based, human; conditions: Figures 3M-3O; for killing effects for senescent cells: bleomycin-induced senescent skin-derived BJ cell model
Description: as §1, §2, §3, §4

[3] = 72 h, Molt-4 cells, three days, CCK-8, read-out: EC50 (Molt-4)
[4] = Bcl-xL-positive Molt-4 cells, read-out: cellular activity / killing activity (Molt-4 cells)

SMILES	platelet number in peripheral blood, in words (platelets)	cell killing activity after addition of pomalidomide (+poma) compared to without (-poma) (Molt-4 cells [1])	activity for killing senescent cells at lower concentrations compared to A-1331852 (MRC5 cells)	selectivity for senescent cells (MRC5 cells)	activity for killing senescent cells at lower concentrations compared to A-1331852 (HEF cells; HEF cell model, 0.01 µM and 0.03 µM)	killing senescent HEF cells (HEF cells; etoposide-induced senescent vs normal HEF cells, Figures 3A-3F)	toxicity on normal non-senescent HEF cells (HEF cells; higher concentration (25 µM))	killing Molt-4 cells at different concentrations (Figure 1), in words (Molt-4 cells [2])	EC50 (Molt-4 cells [2]; [3]) [nM]	EC50 (Molt-4 cells [2]; [4]) [nM]	degradation of the Bcl-xL protein (Bcl-xL protein)	killing effects for senescent cells (BJ cells)	killing effect for the normal early-passage BJ cells (BJ cells)
O=C1CCN(c2ccc(N3CCN(CC#Cc4ccc(OCCCc5ccc(N6CCc7cccc(C(=O)Nc8nc9ccccc9s8)c7C6)nc5C(=O)O)c(F)c4)CC3)cc2)C(=O)N1 [APQ9]	slightly decrease in platelet number	significantly reduced cell killing activity	superior to that of A-1331852	better selectivity for senescent cells	better activity for killing senescent cells at lower concentrations	efficiently and selectively kill senescent HEF cells	no toxicity on normal non-senescent HEF cells	comparable to A-1331852	< 10	< 10	had the ability to degrade the Bcl-xL protein	–	–
O=C1CCN(c2ccc(N3CCN(CC#Cc4ccc(OCCCc5ccc(N6CCc7cccc(C(=O)Nc8nc9ccccc9s8)c7C6)nc5C(=O)O)c(F)c4)CC3)cc2F)C(=O)N1 [APQ902]	–	significantly reduced cell killing activity	superior to that of A-1331852	better selectivity for senescent cells	–	–	–	comparable to A-1331852	< 10	< 10	had the ability to degrade the Bcl-xL protein	highly selective and potent killing effects for senescent cells	without significant killing effect for the normal early-passage BJ cells
O=C1CCN(c2ccc(N3CCC(CN4CCN(CC#Cc5ccc(OCCCc6ccc(N7CCc8cccc(C(=O)Nc9nc%10ccccc%10s9)c8C7)nc6C(=O)O)c(F)c5)CC4)CC3)cc2F)C(=O)N1 [APQ10-3]	–	–	–	–	–	–	–	comparable to A-1331852	< 10	< 10	–	highly selective and potent killing effects for senescent cells	without significant killing effect for the normal early-passage BJ cells
